Assays:
[1] = system: Frankliniella occidentalis; experiment: Insecticidal test against Frankliniella occidentalis; conditions: 500 ppm drug solution sprayed on Phaseolus vulgaris leaf pieces with hatched larvae; four days after treatment
Excerpt: [formula] • assessment criteria.
Female adult Frankliniella occidentalis were inoculated onto Phaseolus vulgaris leaf pieces, and after allowing them to lay eggs for one day, the female adults were removed. […] Four days after the treatment, the number of surviving larvae of this species was examined. […] In duplicate.

[2] = system: Plutella xylostella; experiment: Insecticidal test against Plutella xylostella; conditions: 500 ppm drug solution; Chinese cabbage seedlings with eggs immersed about 30 sec; six days after immersion; 25° C.
Excerpt: Six days after the immersion in the drug solution, the number of surviving insects was examined. […] In triplicate using 10 per plot.

[3] = system: Laodelphax striatellus; experiment: Insecticidal test against Laodelphax striatellus; conditions: 500 ppm drug solution; rice seedlings immersed 30 seconds; three-instar insects; eight days after inoculation
[4] = system: Dirofilaria immitis; experiment: Influence evaluation test on the growth of Dirofilaria immitis; conditions: 168 h, read-out: development inhibition rate from the L3 stage larva to the L4-stage larva

CC1(c2ccc(C(F)(F)F)cc2)CC(=O)C(C(=O)Nc2ccc(F)cc2)=C(O)C1 (stereo not shown) [1-139]
corrected mortality, rating of assessment [1]: D or higher

O=C1CC(c2ccc(C(F)(F)F)nc2)CC(O)=C1C(=O)Nc1ccc(F)cc1 (stereo not shown) [1-68]
corrected mortality, rating of assessment [2]: D or higher
corrected mortality, rating of assessment [3]: D or higher

C[S+]([O-])c1ccc(C2CC(=O)C(C(=O)Nc3ccc(F)cn3)=C(O)C2)cc1 (stereo not shown) [1-164]
corrected mortality, rating of assessment [2]: D or higher
corrected mortality, rating of assessment [3]: D or higher

O=C1CC(c2ccc(C(F)(F)F)cc2)CC(O)=C1C(=O)Nc1nccs1 (stereo not shown) [1-47, 5-hydroxy-3-oxo-N-(thiazol-2-yl)-4′-(trifluoromethyl)-1,2,3,6-tetrahydro-[1,1′-biphenyl]-4-carboxamide]
inhibition at 10 µM [4]: ≥ 50%

O=C1CC(c2ccc(C(F)(F)F)cc2)CC(O)=C1C(=O)Nc1ccc(F)cn1 (stereo not shown) [1-48, N-(5-fluoropyridin-2-yl)-5-hydroxy-3-oxo-4′-(trifluoromethyl)-1,2,3,6-tetrahydro-[1,1′-biphenyl]-4-carboxamide]
inhibition at 10 µM [4]: ≥ 50%
corrected mortality, rating of assessment [2]: D or higher

O=C1CC(c2ccc(C(F)(F)F)nc2)CC(O)=C1C(=O)Nc1ccc(F)cn1 (stereo not shown) [1-149]
corrected mortality, rating of assessment [2]: D or higher
corrected mortality, rating of assessment [3]: D or higher

O=C1CC(c2cncs2)CC(O)=C1C(=O)Nc1ccc(F)cc1 (stereo not shown) [1-152]
corrected mortality, rating of assessment [2]: D or higher
corrected mortality, rating of assessment [3]: D or higher

CONC1=C(C(=O)Nc2ccc(F)cc2)C(=O)CC(c2ccc(C(F)(F)F)cc2)C1 (stereo not shown) [1-227, N-(4-fluorophenyl)-5-(methoxyamino)-3-oxo-4′-(trifluoromethyl)-1,2,3,6-tetrahydro-[1,1′-biphenyl]-4-carboxamide]
inhibition at 10 µM [4]: ≥ 50%

O=C1CC(c2ccc(C(F)(F)F)nc2)CC(O)=C1C(=O)Nc1ccc(F)nc1 (stereo not shown) [1-150]
corrected mortality, rating of assessment [3]: D or higher
corrected mortality, rating of assessment [1]: D or higher

O=C1CC(c2ccc(C(F)(F)F)cc2)CC(SCc2ccccc2)=C1C(=O)Nc1ccc(F)cc1 (stereo not shown) [1-225]
corrected mortality, rating of assessment [2]: D or higher
corrected mortality, rating of assessment [3]: D or higher

O=C1CC(c2ccc(Br)cn2)CC(O)=C1C(=O)Nc1ccc(F)cc1 (stereo not shown) [1-161]
corrected mortality, rating of assessment [2]: D or higher
corrected mortality, rating of assessment [3]: D or higher

CC(C)NC(=S)C1=C(O)CC(c2ccc(C(F)(F)F)cc2)CC1=O (stereo not shown) [1-84]
corrected mortality, rating of assessment [3]: D or higher

O=C1CC(c2ccc(C(F)(F)F)cc2)CC(O)=C1C(=O)Nc1ccc(OC(F)(F)F)cc1 (stereo not shown) [1-9]
corrected mortality, rating of assessment [2]: D or higher
corrected mortality, rating of assessment [3]: D or higher
corrected mortality, rating of assessment [1]: D or higher

O=C1CC(c2ccc(C(F)(F)F)cc2)CC(O)=C1C(=O)Nc1cccc2ncccc12 (stereo not shown) [1-156]
corrected mortality, rating of assessment [2]: D or higher

O=C1CC(c2ccc(C(F)(F)F)nc2)CC(O)=C1C(=O)Nc1ccc(OC(F)(F)F)cc1 (stereo not shown) [1-70]
corrected mortality, rating of assessment [2]: D or higher

O=C1CC(c2ccc(C(F)(F)F)cc2)CC(O)=C1C(=O)Nc1ccc(Cl)cc1Cl (stereo not shown) [1-22]
corrected mortality, rating of assessment [2]: D or higher

O=C1CC(c2ccc(SC(F)(F)F)cc2)CC(O)=C1C(=O)Nc1ccc(F)cc1 (stereo not shown) [1-66]
corrected mortality, rating of assessment [2]: D or higher

O=C1CC(c2ccc(C(F)(F)F)cc2)CC(O)=C1C(=S)Nc1ccc(F)cc1 (stereo not shown) [1-81]
corrected mortality, rating of assessment [2]: D or higher
